The values that follow come from ChEMBL document CHEMBL1201862, “PubChem BioAssay data set” (2004).

What all share (assay): NCI anticancer screen, dose series, 48 h
For test [1], the system named is EKVX.
The test system of test [2] is SNB-75.
Test [3] relates to SR.
Test [4] has as its system DMS-114.
The subject of test [5] is SK-MEL-2.
Test [6] has as its system SW-620.
In test [7] the test system is COLO 205.
For test [8], the system named is SNB-19.
The test system of test [9] is M14.
Test [10] concerns A498.
In test [11] the test system is NCI-H226.
Test [12] deals with NCI-H23.
Test [13] has as its system NCI-H460.
Test [14] relates to MOLT-4.
For test [15], the system named is SK-MEL-28.
Test [16] relates to T47D.
The test system of test [17] is RPMI-8226.
In test [18] the test system is DU-145.
For test [19], the system named is NCI-H522.
Test [20] concerns MDA-MB-231.

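Where inhibition never reached the appropriate level, the endpoint shown equals the highest concentration tested. Otherwise, values were interpolated linearly from a five-concentration, 48-hour dose response in 96-well plates. Abbreviation: GI50, concentration required for 50% inhibition of growth.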 Activity calls are given as the source filed them. Rule as the data show it: active = GI50 up to about 1.1 µM and inactive = higher.

With `Cc1ccc(C)c(N2C(=O)C(=O)C(c3nc4ccccc4o3)C(=O)C2=O)c1`, the GI50 is > 100 µM (inactive) in [1]; 95.1 µM (inactive) in test [2]; 28.8 µM (inactive) in [3]; 44 µM (inactive) in test [4]; > 100 µM (inactive) in test [5]; 46.3 µM (inactive) in test [6]. Further, the GI50 in test [7] was 32.9 µM (inactive); in [8], > 100 µM (inactive); in test [9], 36.1 µM (inactive); in test [10], > 100 µM (inactive); in test [11], > 100 µM (inactive); in test [12], 43.6 µM (inactive). Also, the values for the GI50 in [13], in test [14] and in [15] were > 100 µM (inactive), 27.2 µM (inactive) and 34 µM (inactive), respectively.
On to `COc1ccc2c(c1)c(=O)c1c(NCCCN(C)C)ccc3ncn2c31`, for which the GI50 in [1] was 13.8 µM (inactive); in test [2], 6.3 µM (inactive); in [3], 2.19 µM (inactive); in test [16], 16.3 µM (inactive); in [4], 10.6 µM (inactive); in [5] it was 14.2 µM (inactive). The GI50 in [17] is 1.29 µM (inactive); in [6] it was 1.01 µM (active); in [18], 4.66 µM (inactive); in test [7] it was 2.8 µM (inactive); in [8] it was 3.95 µM (inactive); in test [9], 4.78 µM (inactive). In addition, the GI50 in test [10] is 11.2 µM (inactive); in test [11] it was 2.9 µM (inactive); in test [19] it was 0.993 µM (active); in test [12], 5.87 µM (inactive); in test [13], 1.39 µM (inactive); in [14] it was 0.215 µM (active). The GI50 in [15] was 13.2 µM (inactive).
For `COc1cc2c(cc1OC)[C@@H](Nc1ccc(F)cc1)C1COC(=O)[C@@H]1C2c1cc(OC)c(O)c(OC)c1` (stereo partly drawn), the GI50 in test [1] was > 38.2 µM (inactive); in test [2], 2.5 µM (inactive); in [3], 0.0421 µM (active); in test [4], 1.15 µM (inactive); in [5], 5.42 µM (inactive); in test [17] it was 0.16 µM (active). The GI50 is 0.512 µM (active) in [6]; 12.5 µM (inactive) in [7]; 1 µM (active) in [8]; 1.24 µM (inactive) in test [9]; 1.14 µM (inactive) in test [10]; 0.231 µM (active) in test [11]. The GI50 in test [19] is 2.2 µM (inactive); in [12] it was 0.632 µM (active); in test [13], < 0.0204 µM (active); in test [14] it was 0.0147 µM (active); in test [15], 21.9 µM (inactive).
`CNC(=O)OC1/C(C)=C\C(C)C(O)C(OC)CC(C)CC2=C(OC)C(=O)C=C(C2=O)N(C)C(=O)/C(C)=C/C=C\C1OC` (stereo not drawn): the GI50 in test [1] was 11.9 µM (inactive); in test [2], 14.2 µM (inactive); in [16], 1.57 µM (inactive); in test [4], 4.99 µM (inactive); in [5], 8.85 µM (inactive); in test [17] it was 1.67 µM (inactive). Besides, the GI50 in test [20] is 2.05 µM (inactive); in [6], 0.35 µM (active); in [18] it was 9.64 µM (inactive); in [7], 0.424 µM (active); in [8] it was 36.2 µM (inactive); in [9], 3.08 µM (inactive). In addition, the GI50 in test [10] is 18.5 µM (inactive); in [11], 19.5 µM (inactive); in test [19], 0.879 µM (active); in [12] it was 4.86 µM (inactive); in test [13], 11.1 µM (inactive); in [14] it was 0.891 µM (active). Besides, in test [15], the GI50 was 2.88 µM (inactive).
`COc1cccc2nc3cc(C)c(C)cc3nc12`: the GI50 in test [1], in test [2], in test [3], in test [4], in test [5] and in [6] was > 100 µM (inactive) each time. In addition, the GI50 in test [7] was > 100 µM (inactive); in [8], > 100 µM (inactive); in test [9], > 100 µM (inactive); in test [10] it was > 100 µM (inactive); in test [11], > 100 µM (inactive); in test [19], 95.9 µM (inactive). Moreover, the GI50 in test [12], in test [13], in [14] and in test [15] was > 100 µM (inactive) throughout.
Consider `Nc1nc2ncn(CC(O)COC(=O)c3ccccc3)c2c(=O)[nH]1` (stereo not drawn), for which the GI50 in [1], in [2], in [3], in [4], in test [5] and in test [17] was > 100 µM (inactive) throughout. The GI50 in test [6], in test [7], in [9], in test [10], in test [11] and in test [19] was > 100 µM (inactive) throughout. Besides, the GI50 in test [12], in test [13] and in test [15] was > 100 µM (inactive) throughout.
For `CCOC(=O)CN(Cc1ccccc1)Cc1c(C(=O)c2ccccc2)c2ccccc2n1C(=O)c1ccccc1`, the GI50 in [1] was > 100 µM (inactive); in test [2], 18.3 µM (inactive); in test [3] it was 41 µM (inactive); in test [4] it was > 100 µM (inactive); in test [5], > 100 µM (inactive); in test [17] it was 17.9 µM (inactive). For the same molecule, the GI50 in [6] was > 100 µM (inactive); in test [7], > 100 µM (inactive); in test [8], > 100 µM (inactive); in test [9], > 100 µM (inactive); in test [10], > 100 µM (inactive); in test [11], 60 µM (inactive). Besides, the GI50 in test [19] was > 100 µM (inactive); in test [12], > 100 µM (inactive); in [13], > 100 µM (inactive); in [14], 5.4 µM (inactive); in [15], > 100 µM (inactive).
As for `CS/C(c1ccccc1)=[N+](\[O-])Cc1ccccc1`, the GI50 is > 100 µM (inactive) in test [1]; > 100 µM (inactive) in test [2]; 20 µM (inactive) in [3]; 45.9 µM (inactive) in test [4]; > 100 µM (inactive) in test [5]; 27.1 µM (inactive) in test [17]. The GI50 in [7] was > 100 µM (inactive); in [8], > 100 µM (inactive); in test [9] it was > 100 µM (inactive); in test [10], > 100 µM (inactive); in test [11], > 100 µM (inactive); in test [19], 90.2 µM (inactive). Besides, the GI50 was > 100 µM (inactive) in test [12], 33.6 µM (inactive) in test [13], > 100 µM (inactive) in test [14] and > 100 µM (inactive) in [15].
As for `CC(=O)OC1C(O)C(C)OC(OC2C(OC(=O)C3CCC4C(C3)OC3(CC(OC(=O)/C=C/c5ccccc5)C(C)CO3)C43CO3)OC(C)C(O)C2OC(C)=O)C1O` (stereo not drawn), the GI50 in test [1] was 0.0148 µM (active); in test [2], 0.00867 µM (active); in [3], 0.00258 µM (active); in test [16] it was 0.00216 µM (active); in test [4], 0.0251 µM (active); in test [5] it was 0.00561 µM (active). The GI50 was 0.00227 µM (active) in [17]; 0.0203 µM (active) in test [20]; 0.0111 µM (active) in test [6]; 0.0103 µM (active) in test [18]; 0.0078 µM (active) in test [7]; 0.00617 µM (active) in test [8]. Also, the GI50 was 0.00433 µM (active) in test [9]; 0.0526 µM (active) in test [10]; 0.0142 µM (active) in [11]; 0.00284 µM (active) in test [19]; 0.0123 µM (active) in test [12]; 0.0131 µM (active) in test [13]. Further, the GI50 in test [14] was 0.00468 µM (active); in test [15] it was 0.008 µM (active).
With `COc1cccc(NC(=O)C(C)(C)C)c1SSc1c(NC(=O)C(C)(C)C)cccc1OC`, the GI50 in test [1] is 64.1 µM (inactive); in [2], 40.6 µM (inactive); in test [3], 19.2 µM (inactive); in [4], > 10 µM (inactive); in [5], 48.3 µM (inactive); in test [17], 5.78 µM (inactive). In addition, the GI50 in [6] was 18.2 µM (inactive); in [7] it was 26.9 µM (inactive); in test [8] it was 59 µM (inactive); in [9], 17.5 µM (inactive); in [10], > 100 µM (inactive); in [11] it was > 53.8 µM (inactive). The GI50 was 14.2 µM (inactive) in [19]; 35 µM (inactive) in [12]; 60.4 µM (inactive) in [13]; 17.7 µM (inactive) in test [14]; 32.7 µM (inactive) in test [15].
Consider `COc1ccc([C@H]2[C@@H]3CCc4ccccc4C3=NN2C(N)=S)cc1OC`, for which the GI50 in [1] was 40.1 µM (inactive); in test [3], 27 µM (inactive); in [4], 28.8 µM (inactive); in test [5], 50 µM (inactive); in test [17] it was 37.9 µM (inactive); in [6] it was 58.2 µM (inactive). The GI50 was 77.3 µM (inactive) in test [8]; 67.1 µM (inactive) in test [9]; > 100 µM (inactive) in [10]; 45.6 µM (inactive) in test [11]; 15.9 µM (inactive) in test [19]; 34.6 µM (inactive) in test [12]. Moreover, the GI50 in test [13] is 44.1 µM (inactive); in test [14] it was 31.1 µM (inactive); in [15], 78 µM (inactive).
As to `CC(C)C(NCc1c2ccccc2[n+](C)c2ccccc12)C(=O)O` (stereo not drawn), the GI50 in test [1] is 10.6 µM (inactive); in test [2], 1.5 µM (inactive); in test [3], 0.748 µM (active); in test [4], 2.28 µM (inactive); in test [5] it was 6.04 µM (inactive); in test [17] it was 0.603 µM (active). In addition, the GI50 was 3.7 µM (inactive) in test [6]; 2.34 µM (inactive) in test [7]; 15.5 µM (inactive) in [8]; 4.49 µM (inactive) in [9]; 7.26 µM (inactive) in [10]; 14.7 µM (inactive) in [11]. Further, the GI50 in [19] was 2.15 µM (inactive); in test [12] it was 8.43 µM (inactive); in [13], 5.94 µM (inactive); in test [14], 1.14 µM (inactive); in [15], 12.9 µM (inactive).
